Experimental data: US20070049564A1 (Wyeth, priority 2005, published 2007)
Converted amounts (≈) assume the structure as drawn. Like-named read-outs stand apart in the source and are kept apart here.

Legend:
S. pyogenes GC 4563 = assay: MIC, broth microdilution; details: Streptococcus pyogenes
E. coli GC 2232 = assay: MIC, broth microdilution; details: Escherichia coli
S. aureus GC 6335 = assay: MIC, broth microdilution; details: Staphylococcus aureus
E. coli GC 2272 = assay: MIC, broth microdilution; details: Escherichia coli
E. coli GC 2231 = assay: MIC, broth microdilution; details: Escherichia coli
E. faecium GC 2243 = assay: MIC, broth microdilution; details: Enterococcus faecium
S. typhimurium GC 2172 = assay: MIC, broth microdilution; details: Salmonella enterica, TYPHIMURIUM
E. coli GC 2234 = assay: MIC, broth microdilution; details: Escherichia coli
S. epidermidis GC 4935 = assay: MIC, broth microdilution; details: Staphylococcus epidermidis
E. faecalis GC 2267 = assay: MIC, broth microdilution; details: Enterococcus faecalis
S. aureus GC 6466 = assay: MIC, broth microdilution; details: Staphylococcus aureus
S. aureus GC 1131 = assay: MIC, broth microdilution; details: Staphylococcus aureus
S. aureus GC 2216 = assay: MIC, broth microdilution; details: Staphylococcus aureus
E. faecium GC 4556 = assay: MIC, broth microdilution; details: Enterococcus faecium
Procedure: Antimicrobial susceptibility testing. The in vitro activities of the antibiotics are determined by the broth microdilution method as recommended by the National Committee for Clinical Laboratory Standards (NCCLS) (1). Mueller-Hinton II broth (MHBII)(BBL Cockeysville, Md.) is the medium employed in the testing procedures. Microtiter plates containing serial dilutions of each antimicrobial agent are inoculated with each organism to yield the appropriate density (10^5 CFU/ml) in a 100 μl final volume. The plates are incubated for 18-22 hours at 35° C. in ambient air.
Representative compounds were first incubated in mouse serum for an hour prior to the in vitro testing against a panel of selected gram-positive and gram-negative bacteria strains. All compounds were also pre-incubated in water for an hour prior to testing as control. Representative compounds of Formula I were incubated in human serum prior to MIC determination.

S. aureus GC 1079 = assay: MIC, broth microdilution; details: Staphylococcus aureus
Staph. aureus Smith = assay: In vivo activity (oral, iv; ED50) against Staph. aureus Smith in mice
Procedure: Representative examples of compounds of Formula I were tested for the oral efficacy using S. aureus Smith in mice.

S. pneumoniae+ GC 4465 = assay: MIC, broth microdilution; details: Streptococcus pneumoniae
c. albicans GC 3066 = assay: MIC, broth microdilution
S. pneumoniae* GC 4465 = assay: MIC, broth microdilution; details: Streptococcus pneumoniae
E. coli GC 3226 = assay: MIC, broth microdilution; details: Escherichia coli
[1] = read-out: MINIMAL INHIBITORY CONCENTRATION MIC, pre-incubated in Human Serum
[2] = read-out: MINIMAL INHIBITORY CONCENTRATION MIC, pre-incubated in Mouse Serum
[3] = read-out: MINIMAL INHIBITORY CONCENTRATION MIC, pre-incubated in Water

Work on `Cc1ccc(C(=O)OCOC(=O)N(CC(=O)Nc2cc(N(C)C)c3c(c2O)C(=O)C2=C(O)[C@]4(O)C(=O)C(C(N)=O)=C(O)[C@@H](N(C)C)[C@@H]4C[C@@H]2C3)C(C)(C)C)cc1` [Example 47] yielded an MIC (S. pyogenes GC 4563; GC4563, read-out: MINIMAL INHIBITORY CONCENTRATION MIC, pre-incubated in Human Serum) of 0.25 µg/mL (≈ 0.321 µM), an MIC (S. pyogenes GC 4563; GC4563, read-out: MINIMAL INHIBITORY CONCENTRATION MIC, pre-incubated in Mouse Serum) of 0.12 µg/mL (≈ 0.154 µM) and an MIC (S. pyogenes GC 4563; GC4563, read-out: MINIMAL INHIBITORY CONCENTRATION MIC, pre-incubated in Water) of 0.25 µg/mL (≈ 0.321 µM). The MIC (E. coli GC 2232; GC2232, read-out: MINIMAL INHIBITORY CONCENTRATION MIC, pre-incubated in Human Serum) was 16 µg/mL (≈ 20.6 µM), the MIC (E. coli GC 2232; GC2232, read-out: MINIMAL INHIBITORY CONCENTRATION MIC, pre-incubated in Mouse Serum) was 1 µg/mL (≈ 1.29 µM) and the MIC (E. coli GC 2232; GC2232, read-out: MINIMAL INHIBITORY CONCENTRATION MIC, pre-incubated in Water) was > 64 µg/mL. For the same molecule, the MIC (S. aureus GC 6335; GC6335, read-out: MINIMAL INHIBITORY CONCENTRATION MIC, pre-incubated in Human Serum) was 2 µg/mL (≈ 2.57 µM), the MIC (S. aureus GC 6335; GC6335, read-out: MINIMAL INHIBITORY CONCENTRATION MIC, pre-incubated in Mouse Serum) was 1 µg/mL (≈ 1.29 µM) and the MIC (S. aureus GC 6335; GC6335, read-out: MINIMAL INHIBITORY CONCENTRATION MIC, pre-incubated in Water) was 2 µg/mL (≈ 2.57 µM). For the same molecule, the MIC (E. coli GC 2272; GC2272, read-out: MINIMAL INHIBITORY CONCENTRATION MIC, pre-incubated in Human Serum) was 16 µg/mL (≈ 20.6 µM), the MIC (E. coli GC 2272; GC2272, read-out: MINIMAL INHIBITORY CONCENTRATION MIC, pre-incubated in Mouse Serum) was 1 µg/mL (≈ 1.29 µM) and the MIC (E. coli GC 2272; GC2272, read-out: MINIMAL INHIBITORY CONCENTRATION MIC, pre-incubated in Water) was > 64 µg/mL. The MIC (E. coli GC 2231; GC2231, read-out: MINIMAL INHIBITORY CONCENTRATION MIC, pre-incubated in Human Serum) was 32 µg/mL (≈ 41.1 µM), the MIC (E. coli GC 2231; GC2231, read-out: MINIMAL INHIBITORY CONCENTRATION MIC, pre-incubated in Mouse Serum) was 1 µg/mL (≈ 1.29 µM) and the MIC (E. coli GC 2231; GC2231, read-out: MINIMAL INHIBITORY CONCENTRATION MIC, pre-incubated in Water) was > 64 µg/mL. It also gave an MIC (E. faecium GC 2243; GC2243, read-out: MINIMAL INHIBITORY CONCENTRATION MIC, pre-incubated in Human Serum) of 2 µg/mL (≈ 2.57 µM), an MIC (E. faecium GC 2243; GC2243, read-out: MINIMAL INHIBITORY CONCENTRATION MIC, pre-incubated in Mouse Serum) of 0.5 µg/mL (≈ 0.643 µM) and an MIC (E. faecium GC 2243; GC2243, read-out: MINIMAL INHIBITORY CONCENTRATION MIC, pre-incubated in Water) of 2 µg/mL (≈ 2.57 µM). The MIC (S. typhimurium GC 2172; [1]) was > 64 µg/mL, the MIC (S. typhimurium GC 2172; [2]) was 4 µg/mL (≈ 5.14 µM) and the MIC (S. typhimurium GC 2172; [3]) was > 64 µg/mL. For the same molecule, the MIC (E. coli GC 2234; GC2234, read-out: MINIMAL INHIBITORY CONCENTRATION MIC, pre-incubated in Human Serum) was 16 µg/mL (≈ 20.6 µM), the MIC (E. coli GC 2234; GC2234, read-out: MINIMAL INHIBITORY CONCENTRATION MIC, pre-incubated in Mouse Serum) was 1 µg/mL (≈ 1.29 µM) and the MIC (E. coli GC 2234; GC2234, read-out: MINIMAL INHIBITORY CONCENTRATION MIC, pre-incubated in Water) was > 64 µg/mL. It also gave an MIC (S. epidermidis GC 4935; GC4935, read-out: MINIMAL INHIBITORY CONCENTRATION MIC, pre-incubated in Human Serum) of 4 µg/mL (≈ 5.14 µM), an MIC (S. epidermidis GC 4935; GC4935, read-out: MINIMAL INHIBITORY CONCENTRATION MIC, pre-incubated in Mouse Serum) of 2 µg/mL (≈ 2.57 µM) and an MIC (S. epidermidis GC 4935; GC4935, read-out: MINIMAL INHIBITORY CONCENTRATION MIC, pre-incubated in Water) of 4 µg/mL (≈ 5.14 µM). For the same molecule, the MIC (E. faecalis GC 2267; GC2267, read-out: MINIMAL INHIBITORY CONCENTRATION MIC, pre-incubated in Human Serum) was 4 µg/mL (≈ 5.14 µM), the MIC (E. faecalis GC 2267; GC2267, read-out: MINIMAL INHIBITORY CONCENTRATION MIC, pre-incubated in Mouse Serum) was 1 µg/mL (≈ 1.29 µM) and the MIC (E. faecalis GC 2267; GC2267, read-out: MINIMAL INHIBITORY CONCENTRATION MIC, pre-incubated in Water) was 4 µg/mL (≈ 5.14 µM). For the same molecule, the MIC (S. aureus GC 6466; GC6466, read-out: MINIMAL INHIBITORY CONCENTRATION MIC, pre-incubated in Human Serum) was 1 µg/mL (≈ 1.29 µM), the MIC (S. aureus GC 6466; GC6466, read-out: MINIMAL INHIBITORY CONCENTRATION MIC, pre-incubated in Mouse Serum) was 1 µg/mL (≈ 1.29 µM) and the MIC (S. aureus GC 6466; GC6466, read-out: MINIMAL INHIBITORY CONCENTRATION MIC, pre-incubated in Water) was 2 µg/mL (≈ 2.57 µM). For the same molecule, the MIC (S. aureus GC 1131; GC1131, read-out: MINIMAL INHIBITORY CONCENTRATION MIC, pre-incubated in Human Serum) was 2 µg/mL (≈ 2.57 µM), the MIC (S. aureus GC 1131; GC1131, read-out: MINIMAL INHIBITORY CONCENTRATION MIC, pre-incubated in Mouse Serum) was 1 µg/mL (≈ 1.29 µM) and the MIC (S. aureus GC 1131; GC1131, read-out: MINIMAL INHIBITORY CONCENTRATION MIC, pre-incubated in Water) was 2 µg/mL (≈ 2.57 µM). The MIC (S. aureus GC 2216; GC2216, read-out: MINIMAL INHIBITORY CONCENTRATION MIC, pre-incubated in Human Serum) was 1 µg/mL (≈ 1.29 µM), the MIC (S. aureus GC 2216; GC2216, read-out: MINIMAL INHIBITORY CONCENTRATION MIC, pre-incubated in Mouse Serum) was 1 µg/mL (≈ 1.29 µM) and the MIC (S. aureus GC 2216; GC2216, read-out: MINIMAL INHIBITORY CONCENTRATION MIC, pre-incubated in Water) was 2 µg/mL (≈ 2.57 µM). It also gave an MIC (E. faecium GC 4556; GC4556, read-out: MINIMAL INHIBITORY CONCENTRATION MIC, pre-incubated in Human Serum) of 4 µg/mL (≈ 5.14 µM), an MIC (E. faecium GC 4556; GC4556, read-out: MINIMAL INHIBITORY CONCENTRATION MIC, pre-incubated in Mouse Serum) of 1 µg/mL (≈ 1.29 µM) and an MIC (E. faecium GC 4556; GC4556, read-out: MINIMAL INHIBITORY CONCENTRATION MIC, pre-incubated in Water) of 4 µg/mL (≈ 5.14 µM). The MIC (S. aureus GC 1079; GC1079, read-out: MINIMAL INHIBITORY CONCENTRATION MIC, pre-incubated in Human Serum) was 2 µg/mL (≈ 2.57 µM), the MIC (S. aureus GC 1079; GC1079, read-out: MINIMAL INHIBITORY CONCENTRATION MIC, pre-incubated in Mouse Serum) was 1 µg/mL (≈ 1.29 µM) and the MIC (S. aureus GC 1079; GC1079, read-out: MINIMAL INHIBITORY CONCENTRATION MIC, pre-incubated in Water) was 2 µg/mL (≈ 2.57 µM). The ED50 (Staph. aureus Smith; Staphylococcus aureus, in Mus musculus, iv, read-out: ED50 SIV (Staph aureus Smith)) was 1.2 mg/kg, the ED50 (Staph. aureus Smith; Staphylococcus aureus, in Mus musculus, po, read-out: ED50 SOD (Staph aureus Smith)) was 14 mg/kg and the ED50 (Staph. aureus Smith; Staphylococcus aureus, in Mus musculus, po, read-out: ED50 Staph Smith SOD) was 14 mg/kg. It also gave an ED50 (Staph. aureus Smith; iv, read-out: ED50 Staph Smith SIV) of 1.2 mg/kg, an MIC (S. pneumoniae+ GC 4465; [1]) of 2 µg/mL (≈ 2.57 µM) and an MIC (S. pneumoniae+ GC 4465; [2]) of 2 µg/mL (≈ 2.57 µM). The MIC (S. pneumoniae+ GC 4465; [3]) was 4 µg/mL (≈ 5.14 µM), the MIC (c. albicans GC 3066; Candida albicans, GC3066, read-out: MINIMAL INHIBITORY CONCENTRATION MIC) was > 64 µg/mL and the “MINIMAL INHIBITORY CONCENTRATION MIC” value (c. albicans GC 3066; pre-incubated in Human Serum) was >64 UG/ML. For the same molecule, the “MINIMAL INHIBITORY CONCENTRATION MIC” value (c. albicans GC 3066; pre-incubated in Mouse Serum) was >64 UG/ML, the MIC (S. pneumoniae* GC 4465; [1]) was 0.5 µg/mL (≈ 0.643 µM) and the MIC (S. pneumoniae* GC 4465; [2]) was 0.25 µg/mL (≈ 0.321 µM). For the same molecule, the MIC (S. pneumoniae* GC 4465; [3]) was 0.5 µg/mL (≈ 0.643 µM), the MIC (E. coli GC 3226; GC3226, read-out: MINIMAL INHIBITORY CONCENTRATION MIC, pre-incubated in Human Serum) was 32 µg/mL (≈ 41.1 µM) and the MIC (E. coli GC 3226; GC3226, read-out: MINIMAL INHIBITORY CONCENTRATION MIC, pre-incubated in Mouse Serum) was 2 µg/mL (≈ 2.57 µM). The MIC (E. coli GC 3226; GC3226, read-out: MINIMAL INHIBITORY CONCENTRATION MIC, pre-incubated in Water) was > 64 µg/mL.
